In patent US5677420A, “Phospholipase c-inhibiting peptides” (Kyowa Hakko Kogyo Co., Ltd., priority 1995, dated 1997):
In brackets after ≈: the same amount, converted by molar mass. Square brackets hold non-standard residues; d marks the D form. Peptide text beside a SMILES is read from it. Aun = NCCCCCCCCCCC(=O)O

How the values were obtained:
[1] = tested on: Bacillus subtilis No. 10707; assay: Antibacterial activity, agar dilution method; assay type: cell-based; conditions: medium pH 7.0
Experimental: (§1) The antibacterial activity was determined by the agar dilution method using a medium (pH 7.0) which comprises 3 g/l Bacto-tryptone (Difco Laboratories), 1 g/l meat extract, 1 g/l glucose and 16 g/l agar.

[2] = tested on: Pseudomonas aeruginosa Bin H No. 1; assay: Antibacterial activity, agar dilution method; assay type: cell-based; conditions: medium pH 7.0
Experimental: as §1

PLC-γ1 = molecular target: T1, PLC-γ1 (Bos taurus, UniProt P08487); assay: PLC-inhibiting activity (release of inositol phosphate from [3H]PIP2); assay type: biochemical; conditions: Concentration 123 μM; PLC-γ1 from bovine thymus, 37° C., 10 minutes
T1 construct: A sample of PLC-γ1 was prepared from bovine thymus according to the method described in Y. Honma et al; from tissue; host or cells: bovine thymus
T1 sequence (P08487 1-1291): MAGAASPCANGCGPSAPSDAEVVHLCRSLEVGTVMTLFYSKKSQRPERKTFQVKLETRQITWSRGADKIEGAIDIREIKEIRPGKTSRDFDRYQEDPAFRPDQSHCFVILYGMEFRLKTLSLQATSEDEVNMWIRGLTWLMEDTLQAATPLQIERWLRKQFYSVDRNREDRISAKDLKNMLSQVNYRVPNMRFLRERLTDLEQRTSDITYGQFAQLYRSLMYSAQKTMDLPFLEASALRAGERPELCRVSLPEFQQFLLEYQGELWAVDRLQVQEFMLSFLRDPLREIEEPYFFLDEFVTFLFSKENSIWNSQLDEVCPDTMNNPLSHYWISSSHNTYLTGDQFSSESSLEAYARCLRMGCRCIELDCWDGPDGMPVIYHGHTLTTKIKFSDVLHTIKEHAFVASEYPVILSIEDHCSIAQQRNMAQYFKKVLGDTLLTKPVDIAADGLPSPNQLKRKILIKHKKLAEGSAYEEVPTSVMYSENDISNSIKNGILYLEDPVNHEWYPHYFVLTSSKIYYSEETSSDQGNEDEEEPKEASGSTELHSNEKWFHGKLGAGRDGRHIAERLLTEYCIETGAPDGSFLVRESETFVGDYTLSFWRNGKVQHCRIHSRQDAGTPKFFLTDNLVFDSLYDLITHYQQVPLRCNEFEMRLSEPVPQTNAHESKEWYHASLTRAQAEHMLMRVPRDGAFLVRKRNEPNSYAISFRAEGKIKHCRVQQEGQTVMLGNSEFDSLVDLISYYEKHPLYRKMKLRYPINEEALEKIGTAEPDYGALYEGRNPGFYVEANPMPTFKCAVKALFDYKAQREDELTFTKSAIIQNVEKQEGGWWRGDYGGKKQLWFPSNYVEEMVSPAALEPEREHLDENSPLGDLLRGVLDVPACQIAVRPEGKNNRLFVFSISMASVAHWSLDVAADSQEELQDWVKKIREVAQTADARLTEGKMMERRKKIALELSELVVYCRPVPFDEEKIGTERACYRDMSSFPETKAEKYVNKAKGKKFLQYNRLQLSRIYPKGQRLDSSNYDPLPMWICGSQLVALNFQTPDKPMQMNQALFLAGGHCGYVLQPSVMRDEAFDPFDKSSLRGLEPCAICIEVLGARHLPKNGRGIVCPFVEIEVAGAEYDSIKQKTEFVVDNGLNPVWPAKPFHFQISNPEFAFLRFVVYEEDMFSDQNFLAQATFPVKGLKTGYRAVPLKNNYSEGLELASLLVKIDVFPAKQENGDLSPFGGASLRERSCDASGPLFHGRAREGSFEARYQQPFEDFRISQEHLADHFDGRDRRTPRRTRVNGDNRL
Experimental: PLC-inhibiting activity A sample of PLC-γ1 was prepared from bovine thymus according to the method described in Y. Honma et al., Biochem. J., 269, 13 (1990). A solution having the composition shown in Table 2 below was prepared on ice and was heated to 37° C. to start reaction. After incubation for 10 minutes, 2 ml of a chloroform/methanol mixture (2:1, v/v) was added thereto to stop the reaction. The resulting inositol phosphate was extracted with 0.5 ml of 1N hydrochloric acid. The extract was separated into two liquid phases by centrifugation (2000×g, 3 minutes), and the amount of ^3 H contained in the supernatant (0.7 ml) was measured with a scintillation counter. […] (a) 2-(N-Morpholino)ethanesulfonic acid (b) The peptides and their concentrations in aqueous solutions provided for the test are shown in Table 3. […] The inhibition rate (X) was calculated according to the following equation: X (%)=(A-C)/(B-C)×100 where A is the obtained value of specific radioactivity, B is the value of specific radioactivity obtained when the same amount of water was added instead of the aqueous solution of the test peptide, and C is the value of specific radioactivity obtained when the same amount of water was added instead of the sample and the aqueous solution of the test peptide.

KMS-4 cells = assay: Cell growth-inhibiting activity (BrdU incorporation, cell growth detection kit); assay type: cell-based; conditions: Concentration 1 μM, culturing with peptide for 17 hours
Experimental: Cell growth-inhibiting activity The cell growth-inhibiting activity was determined using a cell growth detection kit (Amersham) in the following manner. KMS-4 cells [M. Nanba et al, International Journal of Cancer, 32, 697 (1983)]were suspended in DMEM medium (Nissui Pharmaceutical Co., Ltd.) containing 10% fetal calf serum at a density of 1-2×10^4 cells/ml, and 1 ml of the cell suspension was put into each well of a 24-well plate (Corning Inc.). The cells were cultured in a CO2 incubator (37° C., 5% CO2) for 2 days. Then, the medium was replaced with a fresh DMEM medium containing 10% fetal calf serum, and the test peptide was added thereto, followed by culturing for 17 hours. […] The number of cells which incorporated BrdU and the total number of cells within one field of vision of a microscope (approximately 200 cells) were determined, and the proportion (%) of stained cells per field of vision was calculated. […] The cell growth-inhibiting activity was calculated in the following manner. That is, the cell growth inhibition rate was calculated according to the following equation: X (%)=(1-B/A)×100 where A is the growth activity when no peptide was added, and B is the growth activity when the test peptide was added.

[3] = tested on: Proteus vulgaris ATCC 6897; assay: Antibacterial activity, agar dilution method; assay type: cell-based; conditions: medium pH 7.0
Experimental: as §1

[4] = tested on: Klebsiella pneumoniae ATCC 10031; assay: Antibacterial activity, agar dilution method; assay type: cell-based; conditions: medium pH 7.0
Experimental: as §1

| Compound | MIC (μg/ml) BS [1] | MIC (μg/ml) PA [2] | Inhibition rate (%) (PLC-γ1) | Inhibition rate (%) (cell growth) (KMS-4 cells) | MIC (μg/ml) PV [3] | MIC (μg/ml) KP [4] |
| --- | --- | --- | --- | --- | --- | --- |
| Ac-Leu-Tyr-Arg-Lys-Met-Arg-Leu-Arg-Tyr-Pro-Val-Abu-NH2 (Ac-LYRKMRLRYPVX-NH2; not fully specified (residue 12); printed as $CH_3CO$—Leu—Tyr—Arg—Lys—Met—Arg—Leu—Arg—Tyr—Pro—Val—NH—$(CH_2)_3CONH_2$) [Compound (I-1)] | 167 µg/mL | 167 µg/mL | 85% | 10% | 83 µg/mL |  |
| CSCC[C@H](NC(=O)[C@H](CCCCN)NC(=O)[C@H](CCCNC(=N)N)NC(=O)[C@H](Cc1ccc(O)cc1)NC(=O)[C@H](CC(C)C)NC(C)=O)C(=O)N[C@@H](CCCNC(=N)N)C(=O)N[C@@H](CC(C)C)C(=O)N[C@@H](CCCNC(=N)N)C(=O)N[C@@H](Cc1ccc(O)cc1)C(=O)N1CCC[C@H]1C(=O)N[C@H](C(=O)NCCCCCCCCCCC(N)=O)C(C)C [Compound (I-6), Ac-Leu-Tyr-Arg-Lys-Met-Arg-Leu-Arg-Tyr-Pro-Val-Aud-NH2] (Ac-LYRKMRLRYPV[Aun]-NH2) |  |  |  |  |  | 43 µg/mL (≈ 25 µM) |
